Assay results from patent publication US10047105B2, “Gyrase inhibitors” (Merck Sharp & Dohme Corp., priority 2009, dated 2018).
≈ marks a conversion by molar mass, not a printed value.

Assays:
[1] = tested on: S. aureus ATCC 13709; test: MIC, antibacterial potency, S. aureus; format: cell-based; conditions: S. aureus
[2] = tested on: S. pneumoniae ATCC 51916; test: MIC, S. pneumoniae; format: cell-based; conditions: S. pneumoniae

Row | SMILES | MIC, SA [1] [µg/mL] | MIC Spn52 [2] [µg/mL]
1 | CCc1[nH]c2nc(Sc3cnc4nccnc4c3)nc(N3CC(CNC(=O)C4CC4)C3)c2c1Cl [700,516] | ≤ 0.5 | 1 (≈ 2.02 µM)
2 | CCc1[nH]c2nc(Sc3cnc4nccnc4c3)nc(N3CC(CNC(=O)C4CCC4)C3)c2c1Cl [700,517] | ≤ 0.5 | 2 (≈ 3.93 µM)
3 | CCc1[nH]c2nc(Sc3cnc4nccnc4c3)nc(N3CC(CNC(=O)CCN4CCCCC4)C3)c2c1Cl [700,518] | 4 (≈ 7.07 µM) | 4 (≈ 7.07 µM)
4 | CCc1[nH]c2nc(Sc3cnc4nccnc4c3)nc(N3CC(CNC(=O)CN4C(=O)CSC4=O)C3)c2c1Cl [700,519] | 1 (≈ 1.71 µM) | 1 (≈ 1.71 µM)
5 | CCc1[nH]c2nc(Sc3cnc4nccnc4c3)nc(N3CC(CNC(=O)[C@@H]4CCC(=O)N4)C3)c2c1Cl [700,520] | 8 (≈ 14.9 µM) | 16 (≈ 29.7 µM)
6 | CCc1[nH]c2nc(Sc3cnc4nccnc4c3)nc(N3CC(CNC(=O)C4CCC(O)CC4)C3)c2c1Cl (stereo not shown) [700,521] | 1 (≈ 1.81 µM) | 2 (≈ 3.62 µM)
7 | CCc1[nH]c2nc(Sc3cnc4nccnc4c3)nc(N3CC(CNC(=O)C4CCCO4)C3)c2c1Cl (stereo not shown) [700,522] | ≤ 0.5 | 2 (≈ 3.81 µM)
8 | CCc1[nH]c2nc(Sc3cnc4nccnc4c3)nc(N3CC(CNC(=O)COCCOCCOC)C3)c2c1Cl [700,523] | 2 (≈ 3.41 µM) | 4 (≈ 6.81 µM)
9 | CCc1[nH]c2nc(Sc3cnc4nccnc4c3)nc(N3CC(CNC(=O)c4cn(C)nc4C(F)(F)F)C3)c2c1Cl [700,524] | ≤ 0.5 | ≤ 0.5
10 | CCc1[nH]c2nc(Nc3cnc4c(c3)nnn4C(C)C)nc(N3CC(O)C3)c2c1Cl.O=C(O)C(F)(F)F [700,525] | > 64 | > 64
11 | CCc1[nH]c2nc(Nc3cnc4c(c3)nnn4C(C)C)nc(N3CC(NC(=O)O)C3)c2c1Cl.O=C(O)C(F)(F)F [700,526] | 8 | > 64
12 | CCc1[nH]c2nc(Nc3cnc4c(c3)nnn4C(C)C)nc(N3CC(N)C3)c2c1Cl.O=C(O)C(F)(F)F.O=C(O)C(F)(F)F [700,527] | 16 | 8
13 | CCc1[nH]c2nc(Nc3cnc4c(c3)nnn4C(C)C)nc(N3CC[C@@H](N(C)C)C3)c2c1Cl.O=C(O)C(F)(F)F.O=C(O)C(F)(F)F [700,528] | 8 | 8
14 | CCc1[nH]c2nc(Nc3ccc4c(N)nc(C)nc4c3)nc(N3CC(N)C3)c2c1Cl.O=C(O)C(F)(F)F.O=C(O)C(F)(F)F [700,531] | 8 | 4
15 | CCc1[nH]c2nc(Nc3cnc4c(c3)nnn4C(C)C)nc(N(C)CCO)c2c1Cl.O=C(O)C(F)(F)F [700,534] | 2 | > 32
16 | CCc1[nH]c2nc(Nc3cnc4c(c3)nnn4C(C)C)nc(OC)c2c1Br.O=C(O)C(F)(F)F [700,535] | ≤ 0.5 | 4
17 | CCc1nc2c(N3CC(N)C3)nc(Sc3cnc4c(N)nc(C)nc4c3)nc2[nH]1 [700,538] | > 16 | > 16
18 | CCc1[nH]c2nc(Sc3cnc4nccnc4c3)nc(N3CC(NCc4cccnc4)C3)c2c1Cl [700,539] | ≤ 0.5 | 1 (≈ 1.98 µM)
19 | CCc1[nH]c2nc(Sc3cnc4nccnc4c3)nc(N3CCC(N)C3)c2c1Cl (stereo not shown) [700,540] | 1 (≈ 2.34 µM) | 2 (≈ 4.68 µM)
20 | CCc1[nH]c2nc(Sc3cnc4nccnc4c3)nc(N3CCC(N)CC3)c2c1Cl [700,541] | 4 (≈ 9.07 µM) | 4 (≈ 9.07 µM)
21 | CCc1[nH]c2nc(Sc3cnc4nccnc4c3)nc(-n3ccnc3)c2c1Cl [700,542] | 2 (≈ 4.89 µM) | 8 (≈ 19.6 µM)

Row | SMILES | MIC, SA [1] [µg/mL] | MIC Spn52 [2] [µg/mL]
22 | CCOC(=O)Cc1nc(N2CCC(O)C2)c2c(Cl)c(CC)[nH]c2n1 (stereo not shown) [700,544] | > 64 | > 64
23 | CCc1[nH]c2nc(Sc3cc(=O)n(C)c(=O)[nH]3)nc(N3CC(N)C3)c2c1Br.O=C(O)C(F)(F)F [700,545] | 2 | 4
24 | CCc1[nH]c2nc(Sc3cnc4nccnc4c3)nc(N(C)Cc3cccnc3)c2c1Cl.O=C(O)C(F)(F)F [700,546] | 4 | 16
25 | CCc1[nH]c2nc(Sc3cnc4nccnc4c3)nc(N3CCC4(CCCN4)C3)c2c1Cl (stereo not shown) [700,547] | 4 (≈ 8.57 µM) | 4 (≈ 8.57 µM)
26 | CCc1[nH]c2nc(Sc3cnc4nccnc4c3)nc(N3CC4CNC4C3)c2c1Cl.O=C(O)C(F)(F)F (stereo not shown) [700,548, 7-(4-(3,6-diazabicyclo[3.2.0]heptan-3-yl)-5-chloro-6-ethyl-7H-pyrrolo[2,3-d]pyrimidin-2-ylthio)pyrido[3,2-b]pyrazine] | ≤ 0.5 | 2
27 | CCc1[nH]c2nc(Sc3cnc4nccnc4c3)nc(N3CC[C@H](NC)C3)c2c1Cl.O=C(O)C(F)(F)F [700,549] | 4 | 4
28 | CCc1[nH]c2nc(Nc3cnc4c(c3)nnn4C(C)C)nc(OC)c2c1Cl.O=C(O)C(F)(F)F [700,550] | 1 | 8
29 | CCc1[nH]c2nc(Oc3cncnc3)nc(Oc3cncnc3)c2c1Cl.O=C(O)C(F)(F)F [700,551] | 2 | 4
30 | CCc1[nH]c2nc(Oc3cncnc3)nc(Oc3cncnc3)c2c1Br.O=C(O)C(F)(F)F [700,552] | ≤ 0.5 | 2
31 | CCc1[nH]c2nc(Sc3cnc4nccnc4c3)nc(OS(=O)(=O)c3ccc(C)cc3)c2c1Cl [700,558] | 8 (≈ 15.6 µM) | > 64
32 | CCc1[nH]c2nc(Sc3nc(C(=O)O)c(Cl)s3)nc(N3CCC(N)C3)c2c1Cl (stereo not shown) [700,559] | > 64 | > 64
33 | CCc1[nH]c2nc(Sc3cccnc3)nc(N3CC(N)C3)c2c1Cl [700,560] | 8 (≈ 22.2 µM) | 32 (≈ 88.7 µM)
34 | CCc1[nH]c2nc(Sc3cnc(Oc4cccnc4)nc3)nc(N3CC(N)C3)c2c1Cl [700,561] | 16 (≈ 35.2 µM) | 32 (≈ 70.3 µM)
35 | CCc1[nH]c2nc(Sc3ccc[n+]([O-])c3)nc(N3CC(N)C3)c2c1Cl [700,562] | 16 (≈ 42.5 µM) | 64 (≈ 170 µM)
36 | CCc1[nH]c2nc(Sc3cnc4nccnc4c3)nc(N3CC4CCNC4C3)c2c1Cl.O=C(O)C(F)(F)F (stereo not shown) [700,563] | 1 | 2
37 | CCc1[nH]c2nc(Sc3cnc4nccnc4c3)nc(N3CCC4CNCC43)c2c1Cl.O=C(O)C(F)(F)F (stereo not shown) [700,564] | 8 | 16
38 | CCc1[nH]c2nc(Sc3cnc4nccnc4c3)nc(N3CC4CNCC4C3)c2c1Cl.O=C(O)C(F)(F)F (stereo not shown) [700,565] | 2 | 4
39 | CCc1[nH]c2nc(Sc3cnc4nccnc4c3)nc(N3CC4CNCC43)c2c1Cl.O=C(O)C(F)(F)F (stereo not shown) [700,566] | > 64 | 64
40 | CCc1[nH]c2nc(Sc3cnc4nccnc4c3)nc(N3CCC(NC)C3)c2c1Cl.O=C(O)C(F)(F)F (stereo not shown) [700,567] | 7 | 4
41 | CCc1[nH]c2nc(Sc3cnc4nccnc4c3)nc(N3C[C@H]4CCCN[C@H]4C3)c2c1Cl.O=C(O)C(F)(F)F [700,568] | ≤ 0.5 | 2
42 | CCc1[nH]c2nc(Sc3cnc4nccnc4c3)nc(N3CCCNCC3)c2c1Cl.O=C(O)C(F)(F)F [700,569] | 8 | 4

Row | SMILES | MIC, SA [1] [µg/mL] | MIC Spn52 [2] [µg/mL]
43 | CCc1[nH]c2nc(Sc3cnc4nccnc4c3)nc(N(C)C[C@@H](O)c3cccc(O)c3)c2c1Cl.O=C(O)C(F)(F)F [700,570] | 1 | 8
44 | CCc1[nH]c2nc(Sc3cnc4nccnc4c3)nc(N3CC4CN(C(=O)OC(C)(C)C)C4C3)c2c1Cl (stereo not shown) [700,571] | 8 (≈ 14.8 µM) | 8 (≈ 14.8 µM)
45 | CCOc1nc(Nc2cnc3nccnc3c2)nc2[nH]c(CC)c(Br)c12.O=C(O)C(F)(F)F [700,572] | 4 | > 8
46 | CCc1[nH]c2nc(Nc3cnc4nccnc4c3)nc(N3CC(O)C3)c2c1Cl.O=C(O)C(F)(F)F [700,573] | > 64 | > 64
47 | CCc1[nH]c2nc(Sc3cncnc3)nc(N3CC(N)C3)c2c1Cl [700,574] | 4 (≈ 11.1 µM) | 16 (≈ 44.2 µM)
48 | CCc1[nH]c2nc(Sc3ccc4c(NCC(C)O)ncnc4c3)nc(N3CCC(N)C3)c2c1Cl (stereo not shown) [700,575] | 8 (≈ 16 µM) | 16 (≈ 32.1 µM)
49 | CCc1[nH]c2nc(Sc3ccc4c(NC)ncnc4c3)nc(N3CCC(N)C3)c2c1Cl (stereo not shown) [700,576] | 8 (≈ 17.6 µM) | 16 (≈ 35.2 µM)
50 | O=C(O)C(F)(F)F.OCCc1[nH]c2nc(Oc3cccnc3)nc(Oc3cncnc3)c2c1Cl [700,577] | > 64 | > 64
51 | CCc1[nH]c2nc(Oc3cncc(OC)c3)nc(Oc3cncc(OC)c3)c2c1Cl.O=C(O)C(F)(F)F [700,578] | ≤ 0.5 | 1
52 | C=CCc1nc(Cc2cccnc2)nc2[nH]c(CC)c(Cl)c12 [700,584] | 8 (≈ 25.6 µM) | 32 (≈ 102 µM)
53 | CCc1[nH]c2nc(Cc3cccnc3)nc(N3CCC(CN)CC3)c2c1Cl [700,585] | > 64 | > 64
54 | CCc1[nH]c2nc(Cc3cccnc3)nc(N3CCC(C(C)N4CCOCC4)CC3)c2c1Cl (stereo not shown) [700,586] | > 64 | > 64
55 | CCc1[nH]c2nc(Cc3cccnc3)nc(N3CCC(N4CCOCC4)C3)c2c1Cl (stereo not shown) [700,587] | 64 (≈ 150 µM) | > 64
56 | CCc1[nH]c2nc(Sc3cnc4nccnc4c3)nc(N3CCC[C@@H](N)C3)c2c1Cl [700,588] | 8 (≈ 18.1 µM) | 8 (≈ 18.1 µM)
57 | CCc1[nH]c2nc(Sc3cnc(N4CCC4)c(C#N)c3)nc(N3CCC(N)C3)c2c1Cl (stereo not shown) [700,589] | 2 (≈ 4.4 µM) | 8 (≈ 17.6 µM)
58 | CCc1[nH]c2nc(Sc3cnc(N4CC(O)C4)c(C#N)c3)nc(N3CCC(N)C3)c2c1Cl (stereo not shown) [700,590] | 4 (≈ 8.49 µM) | 16 (≈ 34 µM)
59 | CCc1[nH]c2nc(Oc3ccc(OC)nc3)nc(Oc3ccc(OC)nc3)c2c1Br.O=C(O)C(F)(F)F [700,591] | 2 | > 64
60 | CCc1[nH]c2nc(Oc3ccc(OC)nc3)nc(Oc3ccc(OC)nc3)c2c1Cl.O=C(O)C(F)(F)F [700,592] | > 64 | 4
61 | CCc1[nH]c2nc(Sc3cnc4nccnc4c3)nc(N3CC[C@@H](C)[C@@H](N)C3)c2c1Cl [700,595] | 8 (≈ 17.6 µM) | 8 (≈ 17.6 µM)
62 | CCc1[nH]c2nc(Sc3ccc(S(=O)(=O)NCCN4CCOCC4)cc3)nc(N3CC(N)C3)c2c1Cl [700,596] | 32 (≈ 58 µM) | 32 (≈ 58 µM)
